Data on 24 compounds can be found in patent US11446287B2, “Compounds and methods for EP300 or CBP modulation and indications therefor” (Opna Immuno-Oncology SA, priority 2019, dated 2022).

The IC50 is the concentration that gives 50% inhibition.

The target of the assay is T1, Recombinant human CBP containing the bromodomain (CBP-BD (1043-1159)) (Homo sapiens, UniProt Q92793).
T1 construct: Recombinant human CBP bromodomain (CBP-BD (1043-1159)); made in house; host or cells: E. coli BL21-CodonPlus (DE3), modified pET vector
As to the kind of experiment: CBP Alphascreen binding assay. The settings on record: read-out: CREBBP (CBP) IC50. On the procedure: CBP Alphascreen Binding Assay
Binding of compounds of Formula (I) with CBP was assessed using Alphascreen™ binding assay. The inhibition of the interaction between the CBP bromodomain and its acetylated target protein was measured quantitatively using recombinant CBP, an acetylated Histone 3 peptide and AlphaScreen™ technology. In absence of inhibition of the CBP protein bound to AlphaScreen™ nickel chelate acceptor beads can interact with the acetylated Histone 3 peptide which was immobilized by the AlphaScreen™ Streptavidin coated beads. This interaction brings donor and acceptor beads in proximity. The close proximity allows the singlet oxygen produced by laser excitation of the donor beads to reach the acceptor beads and generate a luminescence signal. CBP inhibitors result in a decrease in the proximity signal through an inhibition of the CBP—acetylated peptide interaction.
Recombinant human CBP containing the bromodomain (CBP-BD (1043-1159)) was prepared and purified as described in protein expression and purification session. The peptide was human Histone H345-64K56Ac-Biotin (Anaspec CA, USA).
Protocol for CBP assay: All components are prepared in buffer composed of 50 mM HEPES pH 7.5, 50 mM NaCl, 0.01% BSA, 0.01% Triton X-100, 2 mM DTT. Test compounds and DMSO vehicle are diluted 1:50 in buffer and a 4 μL volume was transferred to an Alphaplate. 5.5 μL of CBP protein and 5.5 μL of peptide are added to wells containing 4 μL of various concentrations of test compounds of Formula (I) or DMSO vehicle in an Alphaplate (PerkinElmer GA, USA) and incubated for 1 hour at room temperature. 5 μL donor and acceptor bead mixture was then added with final concentrations of 7.5 μg/ml. 60 minutes after bead addition, Alpha signal was read on the Envision spectrometer (λEx 680 nm, λEm 520-620 nm). Final concentrations of bromodomain proteins and peptide are as shown below.
All data were normalized to the mean of 16 high and 16 low control wells on each plate. A four parameter curve fit of the following formula was then applied: Y=A+((B−A)/(1+((C/x)^D))) Where ‘A’ is the minimum, ‘B’ is the maximum, ‘C’ is the IC50 and ‘D’ is the Hill slope. Protein Expression and Purification
Recombinant human CBP bromodomain (CBP-BD (1043-1159)) was expressed in E. coli cells (in a modified pET vector) with an N-terminal six-His tag and purified using a combination of both IMAC (Ni-affinity) and size exclusion chromatography steps.
Recombinant CBP protein was expressed using the E. coli strain BL21-CodonPlus (DE3) (Agilent Technologies CA, USA). Cells were grown in Terrific Broth (TB) media to an OD600 of 0.92 at 37° C. at which temperature was reduced to 20° C., protein was induced with 1.0 mM isopropyl-β-D-thiogalactopyranoside (“IPTG”) for 20 hours and harvested by centrifugation at 8500×g for 20 minutes. Cells were re-suspended in 0.1M K2PO4 pH 8.0, 250 mM NaCl, 10% Glycerol, 0.75% NP-40, 25 mM Imidazole, with 0.2 mg/ml Lysozyme, 0.2 mM phenylmethanesulfonyl fluoride (“PMSF”), […] (“BME”), 25 μg/ml DNase I, incubated on ice for 30 minutes and lysed with a cell disruptor (MicroFluidics MA, USA). The lysate was clarified by centrifugation at 20,000×g for 1 hour. The protein was captured with Ni-NTA resin (Life Technologies, USA). Contaminating proteins were washed off with 40 mM HEPES pH 7.5, 500 mM NaCl, 5% Glycerol, 5 mM Imidazole, and 5 mM BME. Following 3× wash steps, protein was eluted using 400 mM Imidazole in 40 mM HEPES pH 7.5, 400 mM NaCl, and 5 mM BME. The protein was further purified using a size exclusion column (26/600 Superdex 200, GE Biosciences NJ, USA) in 40 mM HEPES pH 7.5, 250 mM NaCl, 5 mM BME. The protein was aliquoted and flash-frozen in liquid Nitrogen.

T1 sequence (Q92793 1081-1197): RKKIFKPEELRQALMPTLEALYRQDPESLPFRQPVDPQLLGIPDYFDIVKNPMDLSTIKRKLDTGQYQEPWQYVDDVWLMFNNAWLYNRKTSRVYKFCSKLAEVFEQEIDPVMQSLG

On to `Cc1ccc(S(=O)(=O)n2cc(-c3ccc(C(=O)O)cc3)c3cc(-c4c(C)noc4C)cnc32)cc1` [P-0006, 4-(5-(3,5-dimethylisoxazol-4-yl)-1-tosyl-1H-pyrrolo[2,3-b]pyridin-3-yl)benzoic acid], for which the IC50 lay in the range of 1000 to 8000 nM.
In the case of `Cc1noc(C)c1-c1cnc2c(c1)c(-c1ccc(C(=O)O)cc1)cn2C(c1ccccn1)C1CC1` (stereo not drawn) [P-0007, 4-(1-(cyclopropyl(pyridin-2-yl)methyl)-5-(3,5-dimethylisoxazol-4-yl)-1H-pyrrolo[2,3-b]pyridin-3-yl)benzoic acid] it was 0.1 to 1000 nM.
In the case of `Cc1noc(C)c1-c1cnc2c(c1)c(-c1ccc(C(=O)O)cc1)cn2C(c1ccccn1)C1CCC1` (stereo not drawn) [P-0008, 4-(1-(cyclobutyl(pyridin-2-yl)methyl)-5-(3,5-dimethylisoxazol-4-yl)-1H-pyrrolo[2,3-b]pyridin-3-yl)benzoic acid] it was 0.1 to 1000 nM.
`Cc1noc(C)c1-c1cnc2c(CC3CCC3)cn(-c3ccc(C(=O)O)cn3)c2c1` [P-0009, 6-(3-(cyclobutylmethyl)-6-(3,5-dimethylisoxazol-4-yl)-1H-pyrrolo[3,2-b]pyridin-1-yl)nicotinic acid]: the half-inhibitory concentration (IC50) is 0.1 to 1000 nM.
In the case of `Cc1noc(C)c1-c1cnc2c(CC3CC3)cn(-c3ccc(C(=O)O)cn3)c2c1` [P-0010, 6-(3-(cyclopropylmethyl)-6-(3,5-dimethylisoxazol-4-yl)-1H-pyrrolo[3,2-b]pyridin-1-yl)nicotinic acid] it was 0.1 to 1000 nM.
As to `Cc1noc(C)c1-c1cnc2c(Cc3ccccn3)cn(-c3ccc(C(=O)O)cn3)c2c1` [P-0011, 6-(6-(3,5-dimethylisoxazol-4-yl)-3-(pyridin-2-ylmethyl)-1H-pyrrolo[3,2-b]pyridin-1-yl)nicotinic acid], the half-inhibitory concentration (IC50) was in the range of 1000 to 8000 nM.
For the compound `Cc1noc(C)c1-c1cnc2c(c1)c(-c1ccc(C(=O)O)cc1)cn2C(c1ccccn1)c1ccccn1` [P-0012, 4-(1-(di(pyridin-2-yl)methyl)-5-(3,5-dimethylisoxazol-4-yl)-1H-pyrrolo[2,3-b]pyridin-3-yl)benzoic acid], the IC50 lay in the range of 0.1 to 1000 nM.
For `Cc1noc(C)c1-c1cnc2c(c1)c(-c1ccc(C(=O)O)cc1F)cn2[C@@H](C)c1ccccn1` [P-0097, (S)-4-(5-(3,5-dimethylisoxazol-4-yl)-1-(1-(pyridin-2-yl)ethyl)-1H-pyrrolo[2,3-b]pyridin-3-yl)-3-fluorobenzoic acid] the value was 0.1 to 1000 nM; for `COc1ccc(C(=O)O)cc1-n1cc(CC2CCC2)c2ncc(-c3c(C)noc3C)cc21` [P-0098, 3-(3-(cyclobutylmethyl)-6-(3,5-dimethylisoxazol-4-yl)-1H-pyrrolo[3,2-b]pyridin-1-yl)-4-methoxybenzoic acid], 0.1 to 1000 nM.
In the case of `Cc1noc(C)c1-c1cnc2c(C(=O)c3cccc(OC(F)F)c3)cn(-c3ccnc(C(=O)O)c3)c2c1` [P-0099, 4-(3-(3-(difluoromethoxy)benzoyl)-6-(3,5-dimethylisoxazol-4-yl)-1H-pyrrolo[3,2-b]pyridin-1-yl)picolinic acid] it was 0.1 to 1000 nM.
On to `Cc1noc(C)c1-c1cnc2c(Cc3cccc(OC(F)F)c3)cn(-c3ccnc(C(=O)O)c3)c2c1` [P-0100, 4-(3-(3-(difluoromethoxy)benzyl)-6-(3,5-dimethylisoxazol-4-yl)-1H-pyrrolo[3,2-b]pyridin-1-yl)picolinic acid], for which the concentration for half-maximal inhibition (IC50) lay in the range of 0.1 to 1000 nM.
For `Cc1noc(C)c1-c1cnc2c(c1)c(-c1cccc(C(=O)O)c1)cn2CC1CC(F)(F)C1` [P-0101, 3-(1-((3,3-difluorocyclobutyl)methyl)-5-(3,5-dimethylisoxazol-4-yl)-1H-pyrrolo[2,3-b]pyridin-3-yl)benzoic acid] the value was 0.1 to 1000 nM; for `Cc1noc(C)c1-c1cnc2c(c1)c(-c1cccc(C(=O)O)c1)cn2CC1(C)COC1` [P-0102, 3-(5-(3,5-dimethylisoxazol-4-yl)-1-((3-methyloxetan-3-yl)methyl)-1H-pyrrolo[2,3-b]pyridin-3-yl)benzoic acid], 1000 to 8000 nM.
Turning to `COc1cc(C(=O)O)cc(OC)c1-c1cn([C@@H](C)c2ccccn2)c2ncc(-c3c(C)noc3C)cc12` [P-0103, (S)-4-(5-(3,5-dimethylisoxazol-4-yl)-1-(1-(pyridin-2-yl)ethyl)-1H-pyrrolo[2,3-b]pyridin-3-yl)-3,5-dimethoxybenzoic acid], the IC50 was in the range of 0.1 to 1000 nM.
With `Cc1noc(C)c1-c1cnc2c(CC3CCC3)cn(-c3ccc(C#N)c(C(=O)O)c3)c2c1` [P-0104, 2-cyano-5-(3-(cyclobutylmethyl)-6-(3,5-dimethylisoxazol-4-yl)-1H-pyrrolo[3,2-b]pyridin-1-yl)benzoic acid], the half-inhibitory concentration (IC50) fell in the range of 0.1 to 1000 nM.
In the case of `Cc1noc(C)c1-c1cnc2c(CC3CCC3)cn(-c3ccc(C(=O)O)c(C#N)c3)c2c1` [P-0105, 2-cyano-4-(3-(cyclobutylmethyl)-6-(3,5-dimethylisoxazol-4-yl)-1H-pyrrolo[3,2-b]pyridin-1-yl)benzoic acid] it was 0.1 to 1000 nM; in that of `Cc1noc(C)c1-c1cnc2c(c1)c(-c1cncc(C(=O)O)n1)cn2[C@@H](C)c1ccccn1` [P-0106, (S)-6-(5-(3,5-dimethylisoxazol-4-yl)-1-(1-(pyridin-2-yl)ethyl)-1H-pyrrolo[2,3-b]pyridin-3-yl)pyrazine-2-carboxylic acid], 1000 to 8000 nM; in that of `Cc1noc(C)c1-c1cnc2c(c1)c(-c1nccc(C(=O)O)n1)cn2[C@@H](C)c1ccccn1` [P-0107, (S)-2-(5-(3,5-dimethylisoxazol-4-yl)-1-(1-(pyridin-2-yl)ethyl)-1H-pyrrolo[2,3-b]pyridin-3-yl)pyrimidine-4-carboxylic acid], 1000 to 8000 nM.
On to `CCOc1cc(C(=O)O)cc(F)c1-n1cc(CC2CCC2)c2ncc(-c3c(C)noc3C)cc21` [P-0108, 4-(3-(cyclobutylmethyl)-6-(3,5-dimethylisoxazol-4-yl)-1H-pyrrolo[3,2-b]pyridin-1-yl)-3-ethoxy-5-fluorobenzoic acid], for which the IC50 lay in the range of 0.1 to 1000 nM.
In the case of `CCOc1cc(C(=O)O)cc(OCC)c1-n1cc(CC2CCC2)c2ncc(-c3c(C)noc3C)cc21` [P-0109, 4-(3-(cyclobutylmethyl)-6-(3,5-dimethylisoxazol-4-yl)-1H-pyrrolo[3,2-b]pyridin-1-yl)-3,5-diethoxybenzoic acid] it was 0.1 to 1000 nM; in that of `Cc1noc(C)c1-c1cnc2c(CC3CCC3)cn(-c3ccc(C(=O)O)c4ccoc34)c2c1` [P-0110, 7-(3-(cyclobutylmethyl)-6-(3,5-dimethylisoxazol-4-yl)-1H-pyrrolo[3,2-b]pyridin-1-yl)benzofuran-4-carboxylic acid], 0.1 to 1000 nM; in that of `Cc1noc(C)c1-c1cnc2c(CC3CCC3)cn(-c3c(OC(C)C)cc(C(=O)O)cc3OC(C)C)c2c1` [P-0111, 4-(3-(cyclobutylmethyl)-6-(3,5-dimethylisoxazol-4-yl)-1H-pyrrolo[3,2-b]pyridin-1-yl)-3,5-diisopropoxybenzoic acid], 0.1 to 1000 nM.
For `Cc1noc(C)c1-c1cnc2c(c1)c(-c1ccc(C(=O)O)cc1OC(C)C)cn2[C@@H](C)c1ccccn1` [P-0112, (S)-4-(5-(3,5-dimethylisoxazol-4-yl)-1-(1-(pyridin-2-yl)ethyl)-1H-pyrrolo[2,3-b]pyridin-3-yl)-3-isopropoxybenzoic acid] the value was 0.1 to 1000 nM; for `CCCOc1cc(C(=O)O)ccc1-c1cn([C@@H](C)c2ccccn2)c2ncc(-c3c(C)noc3C)cc12` [P-0113, (S)-4-(5-(3,5-dimethylisoxazol-4-yl)-1-(1-(pyridin-2-yl)ethyl)-1H-pyrrolo[2,3-b]pyridin-3-yl)-3-propoxybenzoic acid], 0.1 to 1000 nM.
